{"source": "patent US20020110830A1", "about": "“VEGF responsive cell-based assay for determining VEGF bioactivity” (priority 2001, published 2002)", "target": "T1, FLK-1 VEGF receptor (Mus musculus, UniProt P35918)", "T1 construct": "expressed in transfected cells; host or cells: HeLa (HLR-ELK-1, Stratagene) stably co-transfected with the FLK-1 expression vector; clone #5", "T1 sequence (P35918 20-1345)": "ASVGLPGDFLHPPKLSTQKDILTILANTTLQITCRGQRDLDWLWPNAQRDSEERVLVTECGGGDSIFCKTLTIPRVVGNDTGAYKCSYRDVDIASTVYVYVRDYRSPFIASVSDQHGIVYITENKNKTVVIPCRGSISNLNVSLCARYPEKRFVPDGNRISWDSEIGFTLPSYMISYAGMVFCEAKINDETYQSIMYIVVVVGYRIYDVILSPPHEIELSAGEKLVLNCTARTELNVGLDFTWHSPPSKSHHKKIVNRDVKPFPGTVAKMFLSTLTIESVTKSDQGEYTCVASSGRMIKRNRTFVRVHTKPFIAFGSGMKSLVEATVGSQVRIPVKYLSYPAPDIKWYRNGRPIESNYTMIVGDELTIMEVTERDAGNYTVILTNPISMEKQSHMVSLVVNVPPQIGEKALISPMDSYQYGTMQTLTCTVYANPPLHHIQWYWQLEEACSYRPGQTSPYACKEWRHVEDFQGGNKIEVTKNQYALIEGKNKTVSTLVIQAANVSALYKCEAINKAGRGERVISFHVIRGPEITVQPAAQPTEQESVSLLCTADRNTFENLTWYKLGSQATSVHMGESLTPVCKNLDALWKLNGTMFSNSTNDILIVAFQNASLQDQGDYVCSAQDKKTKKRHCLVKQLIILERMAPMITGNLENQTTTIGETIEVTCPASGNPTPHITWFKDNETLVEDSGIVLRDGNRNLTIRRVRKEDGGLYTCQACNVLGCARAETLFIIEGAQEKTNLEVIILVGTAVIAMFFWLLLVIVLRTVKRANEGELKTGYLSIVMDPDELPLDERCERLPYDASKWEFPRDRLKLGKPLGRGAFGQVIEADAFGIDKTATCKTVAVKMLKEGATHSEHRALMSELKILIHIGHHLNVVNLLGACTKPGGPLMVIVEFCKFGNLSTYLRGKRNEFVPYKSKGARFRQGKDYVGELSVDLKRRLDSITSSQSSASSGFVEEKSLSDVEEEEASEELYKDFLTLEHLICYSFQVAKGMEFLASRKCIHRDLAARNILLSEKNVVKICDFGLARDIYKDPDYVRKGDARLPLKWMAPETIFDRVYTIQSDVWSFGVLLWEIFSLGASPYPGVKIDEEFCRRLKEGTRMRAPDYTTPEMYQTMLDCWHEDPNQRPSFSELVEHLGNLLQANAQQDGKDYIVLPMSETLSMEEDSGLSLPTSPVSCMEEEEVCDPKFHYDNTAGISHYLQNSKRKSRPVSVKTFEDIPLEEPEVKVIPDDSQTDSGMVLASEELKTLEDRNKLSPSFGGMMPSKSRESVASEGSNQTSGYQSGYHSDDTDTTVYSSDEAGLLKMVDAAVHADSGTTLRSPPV", "experiment": "VEGF responsive luciferase assay in VEGF-receptor stable transfected HLR-ELK-1 cell line (clone #5)", "assay_type": "cell-based", "conditions": "FIG. 9", "text": "The assay of the present invention utilizes a stable VEGF responsive cell line which comprises HeLa cells which have been stably transfected with a reporter vector having an expressible reporter element and a DNA binding element disposed adjacent thereto. Preferably, the reporter vector includes a gene encoding a detectable gene product which is disposed downstream of a basic promoter element, preferably a TATA box, which is joined to the binding element which is preferably a GAL4 binding element. […]\nIn general, utilizing known signal transduction relationships and/or pathways, a sample to be assayed for VEGF bioactivity is placed in a container containing the stable cell line as described above. […] Activated FLK-1, which is a known VEGF receptor, then activates MAP kinase (Kroll and Waltenberger, J. Biol. Chem., 1997:272:32521-32527; Doanes et. al., Biochem. Biophys. Res. Comm., 1999;255:545-548. The activated MAP kinase phosphorylates the fusion trans-activation protein (GAL4 DNA binding domain [dbd] fused with ELK-1). The phosphorylated fusion protein binds to the GAL4 DNA binding site of the reported vector activating luciferase expression. Luciferase expression can be detected utilizing techniques well-known in the art. The presence or expression of luciferase indicates VEGF activity in the sample. […]", "data": [{"smiles": "COc1cc2c(Nc3ccc(Br)cc3F)ncnc2cc1OCCn1ccnn1", "note": "[ZD4190]", "values": [{"measurement": "effect on VEGF stimulation of luciferase expression", "value": "affected luciferase expression in a dose-response manner"}]}]}
